Consider three compounds from paper PMC4295023 (Investigational New Drugs, 2014).

Data set [1] can be described thus: Pharmacokinetic analysis of blood samples (noncompartmental). The conditions noted are these: for AUC(0-t) / Cmax: human. The format is in vivo, human. As to the method: Blood samples were collected pre-, 1, 2, 4, 6, 8, 12, and 24 h post-dose on Days 1 and 2 of Cycles 1 and 2. […] Noncompartmental PK parameters were calculated using WinNonlin (Pharsight, Mountain View, CA).

In the next data set the test system is RCC. On the set-up: method as in PMID 22056247. The conditions noted are these: after first line therapy, cited from earlier work.

Like-named read-outs stand apart in the source and are kept apart here.

`O=C1NC(=O)[C@@H](c2cn3c4c(cccc24)CCC3)[C@@H]1c1c[nH]c2ccccc12` [tivantinib, Tivantinib]: the AUC(0-t) was 6.69 µg·h/mL in data set [1] (in vivo, tivantinib, cycle 2, one HCC patient, tivantinib 240 mg BID with sorafenib 400 mg BID, read-out: AUC0-12 h); 12.4 µg·h/mL in data set [1] (in vivo, tivantinib, steady state (cycle 2), HCC patients, tivantinib 360 mg BID and sorafenib 400 mg BID, read-out: AUC0-12h); 8.74 µg·h/mL in data set [1] (in vivo, tivantinib, steady state (cycle 2), non-HCC patients, tivantinib 360 mg BID and sorafenib 400 mg BID, read-out: AUC0-12h). Moreover, the Cmax in data set [1] (in vivo, tivantinib, cycle 2, one HCC patient, tivantinib 240 mg BID with sorafenib 400 mg BID, read-out: Cmax) was 0.879 µg/mL; in data set [1] (in vivo, tivantinib, steady state (cycle 2), HCC patients, tivantinib 360 mg BID and sorafenib 400 mg BID, read-out: mean Cmax), 1.51 µg/mL; in data set [1] (in vivo, tivantinib, steady state (cycle 2), non-HCC patients, tivantinib 360 mg BID and sorafenib 400 mg BID, read-out: mean Cmax) it was 1.32 µg/mL.
On to `CNC(=O)c1ccccc1Sc1ccc2c(/C=C/c3ccccn3)n[nH]c2c1` [axitinib], for which the mPFS in the data set on RCC (axitinib arm) is on record as 6.7 months.
With `CNC(=O)c1cc(Oc2ccc(NC(=O)Nc3ccc(Cl)c(C(F)(F)F)c3)cc2)ccn1` [sorafenib, reference compound], the mPFS in the data set on RCC (sorafenib arm) is given as 4.7 months. Also, the AUC(0-t) in data set [1] (blood, sorafenib, steady state (cycle 2), HCC patients, tivantinib 360 mg BID and sorafenib 400 mg BID, read-out: AUC0-12h) is 43.3 µg·h/mL. Besides, in data set [1] (sorafenib, steady state (cycle 2), non-HCC patients, tivantinib 360 mg BID and sorafenib 400 mg BID), the AUC0-12h is recorded as 39,906 ± 20,604 ng*hr/mL.

What is called Cmax is the peak of the concentration-time curve.
